Experimental data reported in patent US20140137274A1, “INDUCED MALIGNANT STEM CELLS” (LSIP, LLC, priority 2011, published 2014).

System: cancer-related miRNAs
Assay: miRNA expression microarray (SurePrint G3 Human miRNA Microarray Rel.16.0)
Details: logarithmic (log2) value of quotient vs control
Description: Total RNA was prepared from each of six induced malignant stem cells, one induced non-malignant stem cell, and one induced pluripotent stem cell as mentioned above, and the prepared total RNAs were used in Agilent SurePrint G3 Human miRNA Microarray Rel.16.0 to detect abnormal expression (increased or reduced/lost expression) of non-coding RNAs such as endogenous cancer-related microRNAs in the induced malignant stem cells.
Complete Labeling Reagent and Hyb Kit in accordance with the Agilent protocol. To be specific, each sample total RNA (100 ng) was dephosphorylated with Calf Intestine Alkaline Phosphatase (CIP), and the RNA molecule on its 3′ terminal side was labeled with a cyanine 3-cytidine bisphosphate (pCp-Cy3) molecule using T4 RNA Ligase.
The RNA samples labeled in (14-2-3) were hybridized with SurePrint G3 Human miRNA Microarray Rel.16.0 using Agilent miRNA Complete Labeling Reagent and Hyb Kit. To be specific, each of the labeled RNAs was added to a hybridization buffer and allowed to hybridize on SurePrint G3 Human miRNA Microarray Rel.16.0 for 20 hours. After washing, the DNA microarray image was scanned by Agilent Microarray Scanner, and fluorescence signals from the spots were digitized by Feature Extraction Software (v.10.7.3.1).
The miRNAs were annotated using miRBase Release 18, and hybridization was performed onto a microarray chip with the probes designed for the miRNAs shown in the following table (refer to Table 31 below).
In this analysis, the normalized value of the digital data for the hybridization of a subject cell (induced malignant stem cell) sample was divided by the normalized value from the digital data for the hybridization of a control cell sample and the quotient was used as a measure of variation in expression. Probes for which the quotients deviated from 1 (i.e., log21=0) were considered to indicate a variation in expression; those showing quotients greater than 2 (log22=1) or smaller than 0.5 (log20.5=−1) were selected. For each of the comparisons shown below, the genes shown in the tyrosine kinase list and those shown in the cancer drug targets list were analyzed to make respective lists of the genes showing quotients greater than 2 (log22=1) or smaller than 0.5 (log20.5=−1), as compared with the quotient for the control (taken as 1). The analysis was performed using GeneSpring 12.1.
The Normalized column represents a variation in expression in logarithmic values.

hsa-miR-134 (CCCCTCTGGTCAA; chemistry not given here)
Normalized (variation in microRNA expression, subject cell / control cell) ([Ngc1_7]vs [Nib2_17]): 2.736 | Normalized (variation in microRNA expression, subject cell / control cell) ([gc2_1]vs [Nfb2_17]): 1.853 | Normalized (variation in microRNA expression, subject cell / control cell) ([gc2_5]vs [Nfb2_17]): 1.299 | Normalized (variation in microRNA expression, subject cell / control cell) ([gc2_10]vs +Nfb2_17]): 2.829 | Normalized (variation in microRNA expression, subject cell / control cell) ([gcl_6]vs [Nfb2_17]): 2.883

hsa-miR-183-5p (AGTGAATTCTACCAGTGCCA; chemistry not given here)
Normalized (variation in microRNA expression, subject cell / control cell) ([cc4_c]vs [Nfb2_17]): 1.285 | Normalized (variation in microRNA expression, subject cell / control cell) ([gc2_10]vs +Nfb2_17]): −1.886

hsa-miR-193b-3p (AGCGGGACTTTGAGGG; chemistry not given here)
Normalized (variation in microRNA expression, subject cell / control cell) ([gc2_10]vs +Nfb2_17]): 1.098

hsa-miR-200c-3p (TCCATCATTACCCGG; chemistry not given here)
Normalized (variation in microRNA expression, subject cell / control cell) ([Ngc1_7]vs [Nib2_17]): 1.59 | Normalized (variation in microRNA expression, subject cell / control cell) ([cc4_c]vs [Nfb2_17]): 4.536 | Normalized (variation in microRNA expression, subject cell / control cell) ([gc2_1]vs [Nfb2_17]): −1.393 | Normalized (variation in microRNA expression, subject cell / control cell) ([gc2_10]vs +Nfb2_17]): −1.715 | Normalized (variation in microRNA expression, subject cell / control cell) ([gcl_6]vs [Nfb2_17]): 2.005

hsa-miR-205-5p (CAGACTCCGGTGGAAT; chemistry not given here)
Normalized (variation in microRNA expression, subject cell / control cell) ([Ngc1_7]vs [Nib2_17]): −1.315 | Normalized (variation in microRNA expression, subject cell / control cell) ([gc2_1]vs [Nfb2_17]): −1.577 | Normalized (variation in microRNA expression, subject cell / control cell) ([gc2_5]vs [Nfb2_17]): −2.341 | Normalized (variation in microRNA expression, subject cell / control cell) ([gc2_10]vs +Nfb2_17]): −2.908

hsa-miR-210 (TCAGCCGCTGTCACAC; chemistry not given here)
Normalized (variation in microRNA expression, subject cell / control cell) ([Ngc1_7]vs [Nib2_17]): 1.643 | Normalized (variation in microRNA expression, subject cell / control cell) ([cc4_c]vs [Nfb2_17]): 3.796 | Normalized (variation in microRNA expression, subject cell / control cell) ([gc2_5]vs [Nfb2_17]): −1.628 | Normalized (variation in microRNA expression, subject cell / control cell) ([gcl_6]vs [Nfb2_17]): 2.036

hsa-miR-222-3p (ACCCAGTAGCCAG; chemistry not given here)
Normalized (variation in microRNA expression, subject cell / control cell) ([cc4_c]vs [Nfb2_17]): 1.861

hsa-miR-372 (ACGCTCAAATGTCGCAGC; chemistry not given here)
Normalized (variation in microRNA expression, subject cell / control cell) ([Ngc1_7]vs [Nib2_17]): −3.388 | Normalized (variation in microRNA expression, subject cell / control cell) ([gc1_6]vs [Ngc1_7]): 2.003 | Normalized (variation in microRNA expression, subject cell / control cell) ([gcl_6]vs [Nfb2_17]): −1.385

hsa-miR-373-3p (ACACCCCAAAATCGAAGC; chemistry not given here)
Normalized (variation in microRNA expression, subject cell / control cell) ([Ngc1_7]vs [Nib2_17]): −2.818 | Normalized (variation in microRNA expression, subject cell / control cell) ([gc1_6]vs [Ngc1_7]): 1.725 | Normalized (variation in microRNA expression, subject cell / control cell) ([gc2_5]vs [Nfb2_17]): −2.93 | Normalized (variation in microRNA expression, subject cell / control cell) ([gc2_10]vs +Nfb2_17]): −3.202 | Normalized (variation in microRNA expression, subject cell / control cell) ([gcl_6]vs [Nfb2_17]): −1.094

hsa-miR-I7-5p (CTACCTGCACTGTAAGC; chemistry not given here)
Normalized (variation in microRNA expression, subject cell / control cell) ([gc2_10]vs +Nfb2_17]): −3.619

hsa_miR-301a-3p (GCTTTGACAATACTATTGCAC; chemistry not given here)
Normalized (variation in microRNA expression, subject cell / control cell) ([cc4_c]vs [Nfb2_17]): −1.212
